This is an account of results in PubChem BioAssay (NCI).

Test systems include HCC-2998 colon; HOP-62 NSCLC; MOLT-4 leukemia; NCI-H23 lung; NCI-H522 lung; RXF 393 renal; SF-268 CNS; SK-MEL-2 melanoma; SK-MEL-28 melanoma; SW-620 colon.
Common to all, as to assay: NCI anticancer screen, dose series, 48 h

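Cultured in 96-well plates, cells were exposed to test compound for 48 hours across five concentrations. GI50 marks 50% less growth. TGI marks complete inhibition of growth.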

Regarding `COc1cc2c(c(Br)c1N)-c1cc(Br)c(N)cc1C2=O`, the GI50 in the assay with HCC-2998 colon is 4.97 µM; in the assay with HOP-62 NSCLC it was 10.1 µM; with MOLT-4 leukemia, more than 100 µM; in the assay with NCI-H23 lung, 4.3 µM; in the assay on NCI-H522 lung it was 9.15 µM; in the assay on RXF 393 renal, more than 100 µM. Moreover, the GI50 in the assay on SF-268 CNS is 7.37 µM; with SK-MEL-2 melanoma it was more than 100 µM; in the assay on SK-MEL-28 melanoma, more than 100 µM; in the assay with SW-620 colon, more than 100 µM. Moreover, the TGI in the assay with HCC-2998 colon is more than 100 µM; in the assay with HOP-62 NSCLC, more than 100 µM; in the assay on MOLT-4 leukemia, more than 100 µM; in the assay with NCI-H23 lung it was more than 100 µM; in the assay with NCI-H522 lung, 59.6 µM; in the assay on RXF 393 renal, more than 100 µM. Further, the TGI in the assay on SF-268 CNS, with SK-MEL-2 melanoma, in the assay on SK-MEL-28 melanoma and in the assay with SW-620 colon was more than 100 µM throughout.
As to `Cc1ccc2c(c1)/C(=N\N=C/c1cn(C(C)C)c3ccccc13)C(=O)N2`, the GI50 with HCC-2998 colon is 2.42 µM; with HOP-62 NSCLC it was 28.4 µM; in the assay on MOLT-4 leukemia, 0.252 µM; in the assay with NCI-H23 lung it was 4.56 µM; with NCI-H522 lung, 1.05 µM; with RXF 393 renal, 4.31 µM. In addition, the GI50 was 4.9 µM in the assay with SF-268 CNS, 2.3 µM in the assay on SK-MEL-2 melanoma, 21.9 µM in the assay with SK-MEL-28 melanoma and 0.937 µM with SW-620 colon. Also, the TGI in the assay with HCC-2998 colon is 14.9 µM; in the assay with HOP-62 NSCLC, more than 100 µM; in the assay with MOLT-4 leukemia, 0.753 µM; with NCI-H23 lung, more than 100 µM; in the assay with NCI-H522 lung, more than 100 µM; with RXF 393 renal, more than 100 µM. For the same compound, the TGI was more than 100 µM in the assay on SF-268 CNS, 23 µM with SK-MEL-2 melanoma, more than 100 µM in the assay with SK-MEL-28 melanoma and more than 100 µM with SW-620 colon.
For the compound `COc1cc2nc(-c3ccc(Cl)cc3)cc(OCCCN3CCC(O)CC3)c2cc1OC`, the GI50 in the assay with HCC-2998 colon is 1.95 µM; in the assay with HOP-62 NSCLC it was 1.98 µM; in the assay on MOLT-4 leukemia, 1.8 µM; in the assay with NCI-H23 lung, 2.83 µM; in the assay on NCI-H522 lung it was 2.19 µM; in the assay with RXF 393 renal it was 1.22 µM. Moreover, the GI50 is 3.36 µM with SF-268 CNS, 2.07 µM in the assay with SK-MEL-2 melanoma, 1.49 µM with SK-MEL-28 melanoma and 3.05 µM in the assay with SW-620 colon. Further, the TGI with HCC-2998 colon came out at 5.93 µM; in the assay on HOP-62 NSCLC it was 10.4 µM; in the assay on MOLT-4 leukemia, 4.54 µM; with NCI-H23 lung it was 15 µM; with NCI-H522 lung it was 5.77 µM; in the assay with RXF 393 renal, 4.07 µM. Also, the TGI in the assay on SF-268 CNS stood at 19.6 µM; in the assay on SK-MEL-2 melanoma, 5.05 µM; with SK-MEL-28 melanoma, 3.28 µM; in the assay on SW-620 colon it was 13 µM.
As to `COC12c3ccccc3-c3ccccc3C1[C@@H](C(=O)O)[C@H]2C(=O)O` (stereo not given in full), the TGI in the assay on HCC-2998 colon, in the assay on HOP-62 NSCLC, in the assay on MOLT-4 leukemia, in the assay on NCI-H23 lung, with NCI-H522 lung and in the assay with RXF 393 renal was more than 10 µM in each case. Moreover, the TGI in the assay on SF-268 CNS, in the assay with SK-MEL-2 melanoma, with SK-MEL-28 melanoma and in the assay on SW-620 colon was more than 10 µM throughout.
As for `CC1(C)CCC(CN2CCN(c3ccc(C(=O)NS(=O)(=O)c4ccc(NCC5CCOCC5)c([N+](=O)[O-])c4)c(Oc4cnc5[nH]ccc5c4)c3)CC2)=C(c2ccc(Cl)cc2)C1`, the GI50 in the assay on HCC-2998 colon was 2.1 µM; in the assay with HOP-62 NSCLC it was 4.1 µM; in the assay with MOLT-4 leukemia, 2.15 µM; in the assay on NCI-H23 lung, 3.13 µM; in the assay with NCI-H522 lung, 2.46 µM; in the assay with RXF 393 renal, 1.57 µM. For the same compound, the GI50 with SF-268 CNS was 3.58 µM; with SK-MEL-2 melanoma, 1.63 µM; in the assay on SK-MEL-28 melanoma, 1.41 µM; in the assay with SW-620 colon, 3.95 µM. In addition, the TGI in the assay on HCC-2998 colon worked out at 3.92 µM; in the assay on HOP-62 NSCLC, 15.8 µM; in the assay on MOLT-4 leukemia, 5.27 µM; with NCI-H23 lung it was 12.5 µM; with NCI-H522 lung, 7.23 µM; in the assay on RXF 393 renal it was 3.48 µM. The TGI is 17.8 µM with SF-268 CNS, 3.36 µM with SK-MEL-2 melanoma, 6.79 µM in the assay on SK-MEL-28 melanoma and 16.8 µM with SW-620 colon.
With `COc1cc(C2c3cc4c(cc3[C@@H](OCCN)[C@H]3COC(=O)C23)OCO4)cc(OC)c1O` (stereo not given in full), the TGI was found to be 2.1 µM with HCC-2998 colon; 0.34 µM in the assay with HOP-62 NSCLC; 0.733 µM in the assay on MOLT-4 leukemia; 0.731 µM with NCI-H23 lung; 0.596 µM with NCI-H522 lung; 2.35 µM with RXF 393 renal. Also, the TGI in the assay with SF-268 CNS came out at 1.48 µM; in the assay with SK-MEL-2 melanoma, 0.883 µM; in the assay on SK-MEL-28 melanoma, 2.37 µM; with SW-620 colon, 2.45 µM.
For the compound `O=C1/C(=C\c2ccccc2)CN(C(=O)c2ccccc2F)C/C1=C\c1ccccc1`, the GI50 in the assay on HCC-2998 colon was 2.11 µM; in the assay on HOP-62 NSCLC, 2.53 µM; with MOLT-4 leukemia, 2.93 µM; in the assay on NCI-H23 lung, 2.13 µM; in the assay on NCI-H522 lung, 1.78 µM; with RXF 393 renal, 1.8 µM. Further, the GI50 in the assay on SF-268 CNS is 2.8 µM; with SK-MEL-2 melanoma, 2.95 µM; in the assay on SK-MEL-28 melanoma, 2.08 µM; in the assay with SW-620 colon, 1.52 µM. The TGI in the assay on HCC-2998 colon worked out at 3.66 µM; in the assay with HOP-62 NSCLC it was 6.57 µM; in the assay with MOLT-4 leukemia, 8.51 µM; with NCI-H23 lung, 4.84 µM; with NCI-H522 lung it was 3.47 µM; with RXF 393 renal, 3.41 µM. The TGI in the assay on SF-268 CNS is 8.85 µM; in the assay on SK-MEL-2 melanoma, 8.3 µM; in the assay with SK-MEL-28 melanoma, 4.05 µM; in the assay with SW-620 colon, 3.48 µM.
Turning to `COc1ccc(C2=NN(c3ccc(S(N)(=O)=O)cc3)C(c3ccc(Cl)cc3)C2)c(O)c1` (stereo not given), the GI50 is 2.62 µM with HCC-2998 colon; 9.35 µM with HOP-62 NSCLC; 1.92 µM in the assay on MOLT-4 leukemia; 3.32 µM in the assay on NCI-H23 lung; 2.42 µM in the assay with NCI-H522 lung; 2.53 µM in the assay with RXF 393 renal. For the same compound, the GI50 was 5.7 µM with SF-268 CNS, 6.3 µM with SK-MEL-2 melanoma, 5.06 µM with SK-MEL-28 melanoma and 3.68 µM in the assay with SW-620 colon. For the same compound, the TGI was found to be 5.37 µM in the assay with HCC-2998 colon; 28.5 µM in the assay on HOP-62 NSCLC; 5.07 µM in the assay on MOLT-4 leukemia; 13.7 µM in the assay on NCI-H23 lung; 11.1 µM in the assay with NCI-H522 lung; 9.78 µM with RXF 393 renal. Further, the TGI in the assay with SF-268 CNS stood at 25.5 µM; with SK-MEL-2 melanoma, 22.7 µM; in the assay with SK-MEL-28 melanoma, 18.1 µM; with SW-620 colon, 14.8 µM.
